Activity calls are given as the source filed them.

One assay addresses T1, Protein skinhead-1 (Caenorhabditis elegans, UniProt P34707).
T1 sequence (P34707 whole entry): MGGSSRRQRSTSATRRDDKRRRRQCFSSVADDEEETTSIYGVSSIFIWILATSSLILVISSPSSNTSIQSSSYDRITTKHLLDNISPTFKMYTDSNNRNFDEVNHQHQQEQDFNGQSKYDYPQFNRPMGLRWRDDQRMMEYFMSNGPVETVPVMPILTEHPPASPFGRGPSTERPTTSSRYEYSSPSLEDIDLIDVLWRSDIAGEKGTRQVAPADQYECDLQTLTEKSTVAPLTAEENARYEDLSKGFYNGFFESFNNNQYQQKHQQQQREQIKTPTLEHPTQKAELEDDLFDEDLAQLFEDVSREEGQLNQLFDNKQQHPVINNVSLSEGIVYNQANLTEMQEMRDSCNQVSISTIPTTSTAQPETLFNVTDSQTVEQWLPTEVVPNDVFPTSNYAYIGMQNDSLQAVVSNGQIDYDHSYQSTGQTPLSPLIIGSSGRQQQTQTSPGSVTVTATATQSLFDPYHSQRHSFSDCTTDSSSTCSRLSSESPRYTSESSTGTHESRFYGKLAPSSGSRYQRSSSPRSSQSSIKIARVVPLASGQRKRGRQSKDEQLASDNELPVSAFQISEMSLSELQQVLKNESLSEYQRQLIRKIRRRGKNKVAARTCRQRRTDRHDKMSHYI
The class given is functional.

A short description of assay [1]: Luminescence Cell-Based Dose Retest to Confirm Inhibitors of Cancer Stem Cells. [Related pubchem assays (depositor defined):AID2717, AID2721]. The class given is functional. Conditions: Homo sapiens.
In assay [2] the test system is Streptococcus sp. 'group A'. The experiment in a line: growth inhibition of control SK(-) GAS strain, dose response, counter-screen for streptokinase expression inhibitor project, luminescence, kanamycin, BacTiterGlo, confirmation (AID 1900). The class given is functional, organism-based. A general note: The purpose of a counterscreen is to sort out artefacts and off-target activity.

The target in a further assay is T2, Streptokinase A (Streptococcus pyogenes serotype M1, UniProt P10520).
T2 sequence (P10520 whole entry): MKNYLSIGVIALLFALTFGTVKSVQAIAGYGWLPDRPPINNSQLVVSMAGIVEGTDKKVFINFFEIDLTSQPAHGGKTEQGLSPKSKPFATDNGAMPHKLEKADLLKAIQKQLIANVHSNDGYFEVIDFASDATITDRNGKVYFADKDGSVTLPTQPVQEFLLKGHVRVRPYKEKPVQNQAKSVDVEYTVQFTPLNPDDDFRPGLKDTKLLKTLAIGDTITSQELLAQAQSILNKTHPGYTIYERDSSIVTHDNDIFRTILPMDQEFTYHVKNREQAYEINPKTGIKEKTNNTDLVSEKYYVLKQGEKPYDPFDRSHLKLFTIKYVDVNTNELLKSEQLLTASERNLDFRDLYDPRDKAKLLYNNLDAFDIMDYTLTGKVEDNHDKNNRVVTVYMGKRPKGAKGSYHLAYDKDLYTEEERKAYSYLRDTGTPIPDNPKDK
The experiment in a line: S. pyogenes streptokinase expression inhibitors, potency, dose response, plasminogen activation absorbance, OD405 (AID 1914).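 Note: secreted streptokinase activity via plasminogen activation per viability signal from cell pellet.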 The class given is functional, Streptococcus pyogenes M1 GAS.

The next assay relates to Streptococcus. The experiment in a line: Group A Streptococcus viability loss, dose response, counter-screen for streptokinase expression inhibitor project, luminescence, BacTiterGlo (AID 1915).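 Note: potency for reduction of bacterial viability or growth.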 The class given is functional, organism-based.
The target in assay [3] is T3, Replicative DNA helicase DnaB (Mycobacterium tuberculosis, UniProt P9WMR3).
T3 sequence (P9WMR3 whole entry): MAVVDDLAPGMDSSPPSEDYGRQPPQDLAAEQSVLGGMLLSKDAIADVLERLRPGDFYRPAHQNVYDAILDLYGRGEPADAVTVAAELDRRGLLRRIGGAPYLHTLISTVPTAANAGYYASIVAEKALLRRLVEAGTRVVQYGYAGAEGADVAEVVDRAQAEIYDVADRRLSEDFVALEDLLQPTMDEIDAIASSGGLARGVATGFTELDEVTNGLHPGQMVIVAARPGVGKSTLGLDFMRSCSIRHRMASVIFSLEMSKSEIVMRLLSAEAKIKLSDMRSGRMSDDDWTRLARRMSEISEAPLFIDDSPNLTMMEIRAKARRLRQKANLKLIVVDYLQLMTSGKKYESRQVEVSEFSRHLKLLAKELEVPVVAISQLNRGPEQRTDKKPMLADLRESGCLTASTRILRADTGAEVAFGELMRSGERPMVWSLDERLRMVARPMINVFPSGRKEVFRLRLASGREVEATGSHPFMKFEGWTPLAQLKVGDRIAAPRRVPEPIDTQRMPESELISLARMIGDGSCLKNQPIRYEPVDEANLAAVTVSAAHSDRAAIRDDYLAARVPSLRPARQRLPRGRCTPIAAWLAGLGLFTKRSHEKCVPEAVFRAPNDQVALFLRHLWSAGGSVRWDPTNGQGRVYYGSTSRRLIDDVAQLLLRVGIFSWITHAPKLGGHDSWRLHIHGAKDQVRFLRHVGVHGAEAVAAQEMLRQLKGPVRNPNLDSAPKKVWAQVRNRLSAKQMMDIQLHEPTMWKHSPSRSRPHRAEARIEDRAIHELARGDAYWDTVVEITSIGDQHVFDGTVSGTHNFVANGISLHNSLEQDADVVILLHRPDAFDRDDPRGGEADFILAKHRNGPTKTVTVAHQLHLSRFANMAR
The experiment in a line: DnaB intein splicing inhibitors, dose response, biochemical, cell-free fluorescence (AID 449749). Type of assay: functional.

A further assay concerns the target T4, Protein RecA (Mycobacterium tuberculosis, UniProt P9WHJ3).
T4 sequence (P9WHJ3 whole entry): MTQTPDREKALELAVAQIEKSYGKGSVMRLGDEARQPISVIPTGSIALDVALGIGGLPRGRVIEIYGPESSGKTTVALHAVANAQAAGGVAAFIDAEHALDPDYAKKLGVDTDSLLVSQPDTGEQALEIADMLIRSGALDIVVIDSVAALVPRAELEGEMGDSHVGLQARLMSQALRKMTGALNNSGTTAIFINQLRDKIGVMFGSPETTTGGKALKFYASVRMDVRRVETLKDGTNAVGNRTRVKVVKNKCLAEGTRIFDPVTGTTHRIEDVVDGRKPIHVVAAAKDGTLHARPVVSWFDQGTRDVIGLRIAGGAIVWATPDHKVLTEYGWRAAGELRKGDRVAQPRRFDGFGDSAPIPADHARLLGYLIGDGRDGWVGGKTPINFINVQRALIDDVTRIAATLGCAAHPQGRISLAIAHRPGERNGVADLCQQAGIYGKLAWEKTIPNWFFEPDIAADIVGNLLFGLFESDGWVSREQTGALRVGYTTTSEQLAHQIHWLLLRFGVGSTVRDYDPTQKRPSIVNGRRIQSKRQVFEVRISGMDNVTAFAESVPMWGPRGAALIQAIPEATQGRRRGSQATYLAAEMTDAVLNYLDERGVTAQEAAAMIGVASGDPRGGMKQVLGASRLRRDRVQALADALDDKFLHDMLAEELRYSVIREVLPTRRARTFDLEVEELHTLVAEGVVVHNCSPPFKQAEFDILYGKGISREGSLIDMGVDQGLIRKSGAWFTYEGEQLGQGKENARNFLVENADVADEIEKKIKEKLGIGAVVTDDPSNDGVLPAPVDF
The experiment in a line: Fluorescence Cell-Free Homogeneous Dose Retest to Identify Inhibitors of RecA-Intein Splicing Activity. [Related pubchem assays (depositor defined):AID2097, AID2223, AID489010, AID492950]. Type of assay: functional.

The nature of a further assay: cells. The class given is functional.
Another assay deals with INS1. The experiment in a line: beta cell apoptosis inhibitors, cytokine rescue, dose response, luminescence, retest (AID 449756).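 Note: cell death triggered by IL-1 beta plus TNF-alpha plus IFN-gamma mixture; protective hits raise ATP signal compared with cytokine alone wells.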 Type of assay: functional, cell-based. Conditions: Rattus norvegicus.
The next assay addresses Cytochrome P450 2D6 (Homo sapiens, UniProt P10635).

Chain of Cytochrome P450 2D6 (P10635 whole entry): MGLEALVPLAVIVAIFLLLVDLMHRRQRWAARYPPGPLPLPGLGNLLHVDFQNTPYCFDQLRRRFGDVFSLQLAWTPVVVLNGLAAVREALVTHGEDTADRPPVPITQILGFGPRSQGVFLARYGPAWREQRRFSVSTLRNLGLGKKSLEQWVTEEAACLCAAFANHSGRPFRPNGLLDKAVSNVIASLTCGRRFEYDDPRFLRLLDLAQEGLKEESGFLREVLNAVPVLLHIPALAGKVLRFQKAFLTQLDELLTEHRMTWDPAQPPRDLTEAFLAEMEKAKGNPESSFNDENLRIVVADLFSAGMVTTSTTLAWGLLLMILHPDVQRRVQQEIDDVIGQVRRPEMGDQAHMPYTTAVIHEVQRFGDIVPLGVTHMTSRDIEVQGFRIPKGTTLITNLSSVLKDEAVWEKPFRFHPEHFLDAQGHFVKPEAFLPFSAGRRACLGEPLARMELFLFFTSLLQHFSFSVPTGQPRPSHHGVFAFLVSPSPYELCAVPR

In general, IC50 refers to the concentration at which inhibition is half-maximal. In the case of `CCCOc1ccc(OCCSc2ncccn2)cc1`, the IC50 at Protein skinhead-1 is 82.8 µM (inactive). The AC50 is the midpoint of the concentration-response curve, whichever way the signal moves. Consider `COc1ccc(-c2cccc([C@H]3[C@@H]4C=CCC[C@@]4(C)C(=O)N3Cc3ccccc3)c2)cc1`, for which, in [1], the AC50 is 5.36 µM (active).

By EC50 is commonly meant the concentration that produces a half-maximal response. Regarding `CCOC(=O)c1cnn(-c2nc(-c3ccccc3F)cs2)c1C(F)(F)F`, the EC50 in assay [2] is 17.9 µM (active); at Streptokinase A it was 34.3 µM (active); in the assay on Streptococcus it was 23.8 µM (active). For `C[C@@H]1O[C@@H](O[C@H]2C[C@@H](O)[C@]3(CO)[C@H]4[C@H](O)C[C@]5(C)[C@@H](C6=CC(=O)OC6)CC[C@]5(O)[C@@H]4CC[C@]3(O)C2)[C@H](O)[C@H](O)[C@H]1O`, the AC50 in assay [1] is < 0.16 µM (active). Same read-out and setting: then `CC(=O)Nc1ccc(SCC(=O)c2cc(C)n(-c3ccccc3)c2C)cc1`, with 6.41 µM (active). Regarding `CC(C)Nc1nc(NC(C)C)nc(N(C)N)n1`, the EC50 was 32.9 µM (active) in assay [2], > 150 µM (not active) on Streptokinase A and > 150 µM (not active) in the assay on Streptococcus. Consider `CC1=NN(c2ccccc2)C(=O)/C1=C\c1cn(C)c2ccccc12`, for which the AC50 in [3] was 17.7 µM (active). Moreover, the EC50 on Protein RecA is 6.5 µM (active). With `CSc1cccc(-c2nnc(NC(=O)c3cccc(N4C(=O)CCC4=O)c3)o2)c1`, the EC50 in assay [2] is 4.88 µM (active); at Streptokinase A it was > 150 µM (not active); with Streptococcus, 131 µM (active). Turning to `Cc1ccc(-c2nnn(CC(=O)NCC3COCCO3)n2)o1` (centres undefined), the IC50 at Protein skinhead-1 was > 100 µM (inactive). Still for that read-out and setting: then `CN(CC(=O)Nc1cccc(F)c1)C(=O)CC1CC2CCC1C2` (centres undefined), with > 100 µM (inactive). Take `COC(=O)COc1ccc(-c2ccccc2)cc1C=O`: the IC50 in the assay “cells” is 12.1 µM (active).

Consider `COc1ccc(NC(=O)c2cc3ccccc3o2)cc1`, for which the IC50 in the assay “cells” was > 50 µM (active). On the same count and under the same terms, then `c1nc2n(n1)C1=C(CCCC1)C1(CCCCC1)N2`, with 10.1 µM (active). As for `O=[N+]([O-])c1ccc(Nc2nccc(Cl)n2)cc1`, the IC50 on Protein skinhead-1 is > 100 µM (inactive).

`O=C(OCn1nnc2ccccc2c1=O)c1ccc(Br)o1`: the IC50 in “cells” is 18.6 µM (active).

Turning to `O=C(C=Cc1ccco1)c1ccc2ccccc2c1`, the IC50 on Protein skinhead-1 is 9.38 µM (active).

Consider `Fc1ccc(Cn2cccc2C2=NC(c3ccccc3)CO2)cc1` (centres undefined), for which the results for the EC50 (in assay [2]; at Streptokinase A; in the assay with Streptococcus) were 16 µM (active), 23.8 µM (active) and > 150 µM (not active), respectively. With `COc1ccc(C(=O)c2ccc(OC)cc2OC)cc1`, the AC50 in assay [1] is 13.6 µM (active). As to `CC(=O)c1c(C)[nH]c(C(=O)CN2CCN(S(=O)(=O)c3ccccc3)CC2)c1C`, in the assay on INS1, the AC50 is > 260 µM (inactive). The same measure, in the same setting: in the case of `O=C(NCc1ccccc1)C1=C[C@@H](c2csc3ccccc23)C[C@@H](OCc2ccc(CO)cc2)O1` it was 2.88 µM (active). For `COC(=O)c1cc(NC(=O)c2cc(-c3ccccc3Cl)oc2C(F)(F)F)ccc1N1CCOCC1`, the AC50 in assay [1] was 4.57 µM (active). The same measure, in the same setting: then `Cc1ccn2c(NC3CCCCC3)c(-c3cccc(SC4CCCCC4)c3)nc2c1`, with 2.65 µM (active). In the case of `O=C(NC(=S)N(Cc1ccccc1)Cc1ccccc1)c1ccccc1F`, the EC50 in assay [2] was 1.08 µM (active); at Streptokinase A, > 150 µM (not active); in the assay with Streptococcus, 9.16 µM (active). Further, the AC50 on Cytochrome P450 2D6 is 0.2 µM (inconclusive).

In the case of `CCc1ccccc1NC(=O)NNS(=O)(=O)c1cc(C)ccc1C`, the figures for the EC50 (in assay [2]; on Streptokinase A; in the assay with Streptococcus) were > 150 µM (not active), 4.21 µM (active) and > 150 µM (not active), respectively. Regarding `Cc1ccc(OCCSc2nc(NC(C)C)nc(NC(C)C)n2)cc1`, the values for the EC50 (in [2]; on Streptokinase A; with Streptococcus) were 6.42 µM (active), 13.9 µM (active) and 34.2 µM (active), respectively. Also, the AC50 in assay [1] is 1.11 µM (active). As to `Cc1ccccc1C(=O)Nc1scc(-c2ccc(Br)cc2)c1C(=O)O`, the EC50 in assay [2] was 3.46 µM (active); at Streptokinase A, > 150 µM (not active); in the assay with Streptococcus it was 7.36 µM (active). Turning to `C=CC[C@@H](CC(=O)N(CCO)Cc1ccccc1)C(=O)N[C@H](COC(=O)[C@@H](CC=C)CC(=O)OC(C)(C)C)c1ccccc1`, in the assay with INS1, the AC50 is > 260 µM (inactive). Turning to `COC(=O)c1cc(-c2cccc(OC)c2)c2c(=O)[nH]c(=O)n(C)c2n1`, the figures for the EC50 (in assay [2]; on Streptokinase A; in the assay with Streptococcus) were 6.29 µM (active), > 150 µM (not active) and 11.7 µM (active), respectively. Regarding `COC(=O)c1c2c(nc3ccccc13)CCC2`, on Protein skinhead-1, the IC50 is > 100 µM (inactive). Still for that read-out and setting: in the case of `CCn1c(C)c(C)c2cc(C(=O)N3CCN(c4ccccc4)CC3)ccc21` it was > 100 µM (inactive). For the molecule `CC(C)c1ccc(NC(=O)C(c2ccccc2)N(C)C(=O)CCc2c[nH]c3ccccc23)cc1` (centres undefined), the AC50 in assay [1] is 4 µM (active). As to `Cc1cc(C(=O)c2ccc(Cl)cc2)c(NC(=O)CCl)s1`, the AC50 in assay [3] is 24.4 µM (active). Also, on Protein RecA, the EC50 is 0.481 µM (active).

The record behind these values is ChEMBL document CHEMBL1201862, “PubChem BioAssay data set” (2004).
